According to US6737383B1, “Herbicidal oxadiazolidines” (priority 1999, dated 2004):

What was measured:
wild oat = assay: Test B pre/postemergence wild oat; assay type: in vivo, Avena fatua
Method in brief: (§1)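 Response is a visual 0-to-10 score relative to untreated plants, where 0 means no effect and 10 means complete control, taken twelve to sixteen days after application. Treatments went onto soil at planting and onto foliage of 1- to 4-leaf plants, using a surfactant-containing non-phytotoxic solvent.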

velvetleaf = assay: Test B pre/postemergence velvetleaf; assay type: in vivo, Abutilon theophrasti
Method in brief: as §1

sugar beet = assay: Test B pre/postemergence sugar beet; assay type: in vivo, Beta vulgaris
Method in brief: as §1

soybean = assay: Test B pre/postemergence soybean; assay type: in vivo, Glycine max
Method in brief: as §1

giant foxtail = assay: Test B pre/postemergence giant foxtail; assay type: in vivo, Setaria faberii
Method in brief: as §1

bedstraw = assay: Test B pre/postemergence bedstraw; assay type: in vivo, Galium aparine; conditions: for Plant response rating, Bedstraw: scale of 0 to 10 where 0 is no effect and 10 is complete control; for Bedstraw plant response rating: 10 is complete control
Method in brief: as §1

wheat = assay: Test B pre/postemergence wheat; assay type: in vivo, Triticum aestivum
Method in brief: as §1

rape = assay: Test B pre/postemergence rape; assay type: in vivo, Brassica napus
Method in brief: as §1

cocklebur = assay: Test B pre/postemergence cocklebur; assay type: in vivo, Xanthium strumarium
Method in brief: as §1

morningglory = assay: Test B pre/postemergence morningglory; assay type: in vivo, Ipomoea hederacea
Method in brief: as §1

pigweed = assay: Test B pre/postemergence pigweed; assay type: in vivo, Amaranthus retroflexus
Method in brief: as §1

surinam grass = assay: Test B pre/postemergence surinam grass; assay type: in vivo, Brachiaria decumbens
Method in brief: as §1

corn = assay: Test B pre/postemergence corn; assay type: in vivo, Zea mays
Method in brief: as §1

crabgrass = assay: Test B pre/postemergence crabgrass; assay type: in vivo, Digitaria sanguinalis
Method in brief: as §1

purple nutsedge = assay: Test B pre/postemergence purple nutsedge; assay type: in vivo, Cyperus rotundus
Method in brief: as §1

blackgrass = assay: Test B pre/postemergence blackgrass; assay type: in vivo, Alopecurus myosuroides
Method in brief: as §1

[1] = Postemergence, Rate 62 g/ha, scale of 0 to 10, 0 is no effect, 10 is complete control
[2] = Postemergence, Rate 125 g/ha, scale 0 to 10, 0 is no effect, 10 is complete control
[3] = Postemergence, Rate 500 g/ha, scale 0 to 10, 0 is no effect, 10 is complete control
[4] = Preemergence, Rate 62 g/ha, scale of 0 to 10 where 0 is no effect and 10 is complete control
[5] = Preemergence, Rate 125 g/ha, scale 0 to 10, 0 is no effect, 10 is complete control
[6] = Preemergence, Rate 500 g/ha, scale of 0 to 10 where 0 is no effect and 10 is complete control
[7] = Preemergence, Rate 125 g/ha, scale 0 to 10, 0 is no effect
[8] = Preemergence, Rate 250 g/ha, scale 0 to 10, 0 is no effect
[9] = Preemergence, Rate 500 g/ha, scale 0 to 10, 0 is no effect
[10] = Postemergence, Rate 250 g/ha, scale 0 to 10
[11] = Postemergence, Rate 250 g/ha, scale 0 to 10, 0 no effect, 10 complete control
[12] = Preemergence, Rate 250 g/ha, scale 0 to 10, 0 is no effect, 10 is complete control
[13] = Preemergence, Rate 500 g/ha, scale 0 to 10, 0 is no effect, 10 is complete control

Cc1noc(C)c1Cn1c(=O)on(C(=O)N(c2ccc(F)cc2F)C(C)C)c1=O [Compound 510]
Wild oats plant response rating (wild oat; [1]): 0
Wild oats plant response rating (wild oat; [2]): 0
Plant response rating, Wild oats (wild oat; [3]): 5
Plant response rating, Wild oats (wild oat; [4]): 4
Wild oats plant response rating (wild oat; [5]): 6
Wild oats plant response rating (wild oat; [6]): 7
Velvetleaf plant response rating (velvetleaf; [1]): 4
Velvetleaf plant response rating (velvetleaf; [2]): 4
Plant response rating, Velvetleaf (velvetleaf; [3]): 7
Plant response rating, Velvetleaf (velvetleaf; [4]): 1
Velvetleaf plant response rating (velvetleaf; [5]): 2
Velvetleaf plant response rating (velvetleaf; [6]): 6
Sugarbeets plant response rating (sugar beet; [1]): 2
Sugarbeets plant response rating (sugar beet; [2]): 4
Plant response rating, Sugarbeets (sugar beet; [3]): 8
Plant response rating, Sugarbeets (sugar beet; [4]): 0
Sugarbeets plant response rating (sugar beet; [5]): 0
Sugarbeets plant response rating (sugar beet; [6]): 7
Soybean plant response rating (soybean; [1]): 4
Soybean plant response rating (soybean; [2]): 7
Plant response rating, Soybean (soybean; [3]): 8
Plant response rating, Soybean (soybean; [4]): 0
Soybean plant response rating (soybean; [5]): 0
Soybean plant response rating (soybean; [6]): 0
Giant foxtail plant response rating (giant foxtail; [1]): 4
Giant foxtail plant response rating (giant foxtail; [2]): 6
Plant response rating, Giant foxtail (giant foxtail; [3]): 9
Plant response rating, Giant foxtail (giant foxtail; [4]): 9
Giant foxtail plant response rating (giant foxtail; [5]): 9
Giant foxtail plant response rating (giant foxtail; [6]): 10
Plant response rating, Bedstraw (bedstraw; Preemergence, Rate 62 g/ha): 0
Bedstraw plant response rating (bedstraw; [7]): 0
Bedstraw plant response rating (bedstraw; [8]): 0
Bedstraw plant response rating (bedstraw; [9]): 4
Wheat plant response rating (wheat; [1]): 0
Wheat plant response rating (wheat; [2]): 0
Plant response rating, Wheat (wheat; [3]): 3
Plant response rating, Wheat (wheat; [4]): 0
Wheat plant response rating (wheat; [5]): 0
Wheat plant response rating (wheat; [6]): 0
Rape plant response rating (rape; [1]): 1
Rape plant response rating (rape; [2]): 4
Plant response rating, Rape (rape; [3]): 9
Plant response rating, Rape (rape; [4]): 2
Rape plant response rating (rape; [5]): 5
Rape plant response rating (rape; [6]): 9
Cocklebur plant response rating (cocklebur; [1]): 3
Cocklebur plant response rating (cocklebur; [2]): 3
Cocklebur plant response rating (cocklebur; [10]): 4
Plant response rating, Cocklebur (cocklebur; [3]): 4
Plant response rating, Cocklebur (cocklebur; [4]): 0
Cocklebur plant response rating (cocklebur; [5]): 0
Cocklebur plant response rating (cocklebur; [6]): 0
Morningglory plant response rating (morningglory; [1]): 4
Morningglory plant response rating (morningglory; [2]): 5
Plant response rating, Morningglory (morningglory; [3]): 6
Plant response rating, Morningglory (morningglory; [4]): 0
Morningglory plant response rating (morningglory; [5]): 0
Morningglory plant response rating (morningglory; [6]): 5
Redroot pigweed plant response rating (pigweed; [1]): 7
Redroot pigweed plant response rating (pigweed; [2]): 7
Plant response rating, Redroot pigweed (pigweed; [4]): 7
Redroot pigweed plant response rating (pigweed; [5]): 9
Redroot pigweed plant response rating (pigweed; [6]): 10
B. signalgrass plant response rating (surinam grass; [1]): 2
B. signalgrass plant response rating (surinam grass; [2]): 4
B. signalgrass plant response rating (surinam grass; [11]): 4
Plant response rating, B. signalgrass (surinam grass; [3]): 6
Plant response rating, B. signalgrass (surinam grass; [4]): 7
B. signalgrass plant response rating (surinam grass; [5]): 7
B. signalgrass plant response rating (surinam grass; [12]): 8
B. signalgrass plant response rating (surinam grass; [13]): 9
Corn plant response rating (corn; [1]): 0
Corn plant response rating (corn; [2]): 0
Corn plant response rating (corn; [10]): 0
Plant response rating, Corn (corn; [3]): 0
Plant response rating, Corn (corn; [4]): 0
Corn plant response rating (corn; [5]): 0
Corn plant response rating (corn; [6]): 5
Crabgrass plant response rating (crabgrass; [1]): 3
Crabgrass plant response rating (crabgrass; [2]): 8
Crabgrass plant response rating (crabgrass; [10]): 8
Plant response rating, Crabgrass (crabgrass; [3]): 9
Plant response rating, Crabgrass (crabgrass; [4]): 5
Crabgrass plant response rating (crabgrass; [5]): 9
Crabgrass plant response rating (crabgrass; [6]): 9
Nutsedge plant response rating (purple nutsedge; [2]): 0
Plant response rating, Nutsedge (purple nutsedge; [3]): 0
Plant response rating, Nutsedge (purple nutsedge; [4]): 0
Nutsedge plant response rating (purple nutsedge; [5]): 0
Nutsedge plant response rating (purple nutsedge; [6]): 0
Blackgrass plant response rating (blackgrass; [1]): 5
Blackgrass plant response rating (blackgrass; [2]): 5
Blackgrass plant response rating (blackgrass; [10]): 5
Plant response rating, Blackgrass (blackgrass; [3]): 6
Plant response rating, Blackgrass (blackgrass; [4]): 6
Blackgrass plant response rating (blackgrass; [5]): 6
Blackgrass plant response rating (blackgrass; [12]): 7
Blackgrass plant response rating (blackgrass; [6]): 8

CC(C)=CCn1c(=O)on(C(=O)N(c2ccc(F)cc2F)C(C)C)c1=O [Compound 515]
Wild oats plant response rating (wild oat; [1]): 0
Wild oats plant response rating (wild oat; [2]): 0
Plant response rating, Wild oats (wild oat; [3]): 0
Plant response rating, Wild oats (wild oat; [4]): 3
Wild oats plant response rating (wild oat; [5]): 5
Wild oats plant response rating (wild oat; [6]): 9
Velvetleaf plant response rating (velvetleaf; [1]): 2
Velvetleaf plant response rating (velvetleaf; [2]): 4
Plant response rating, Velvetleaf (velvetleaf; [3]): 8
Plant response rating, Velvetleaf (velvetleaf; [4]): 0
Velvetleaf plant response rating (velvetleaf; [5]): 0
Velvetleaf plant response rating (velvetleaf; [6]): 6
Sugarbeets plant response rating (sugar beet; [1]): 3
Sugarbeets plant response rating (sugar beet; [2]): 3
Plant response rating, Sugarbeets (sugar beet; [3]): 3
Plant response rating, Sugarbeets (sugar beet; [4]): 0
Sugarbeets plant response rating (sugar beet; [5]): 4
Sugarbeets plant response rating (sugar beet; [6]): 7
Soybean plant response rating (soybean; [1]): 4
Soybean plant response rating (soybean; [2]): 4
Plant response rating, Soybean (soybean; [3]): 7
Plant response rating, Soybean (soybean; [4]): 0
Soybean plant response rating (soybean; [5]): 0
Soybean plant response rating (soybean; [6]): 0
Giant foxtail plant response rating (giant foxtail; [1]): 8
Giant foxtail plant response rating (giant foxtail; [2]): 9
Plant response rating, Giant foxtail (giant foxtail; [3]): 9
Plant response rating, Giant foxtail (giant foxtail; [4]): 10
Giant foxtail plant response rating (giant foxtail; [5]): 10
Giant foxtail plant response rating (giant foxtail; [6]): 10
Bedstraw plant response rating (bedstraw; Postemergence, Rate 62 g/ha, scale of 0 to 10, 0 is no effect): 6
Bedstraw plant response rating (bedstraw; Postemergence, Rate 125 g/ha, scale 0 to 10, 0 is no effect): 6
Plant response rating, Bedstraw (bedstraw; Preemergence, Rate 62 g/ha): 0
Bedstraw plant response rating (bedstraw; [7]): 0
Bedstraw plant response rating (bedstraw; [8]): 0
Bedstraw plant response rating (bedstraw; [9]): 3
Wheat plant response rating (wheat; [1]): 0
Wheat plant response rating (wheat; [2]): 0
Plant response rating, Wheat (wheat; [3]): 0
Plant response rating, Wheat (wheat; [4]): 0
Wheat plant response rating (wheat; [5]): 0
Wheat plant response rating (wheat; [6]): 7
Rape plant response rating (rape; [1]): 4
Rape plant response rating (rape; [2]): 4
Plant response rating, Rape (rape; [3]): 6
Plant response rating, Rape (rape; [4]): 0
Rape plant response rating (rape; [5]): 4
Rape plant response rating (rape; [6]): 10
Cocklebur plant response rating (cocklebur; [1]): 0
Cocklebur plant response rating (cocklebur; [2]): 3
Cocklebur plant response rating (cocklebur; [10]): 3
Plant response rating, Cocklebur (cocklebur; [3]): 5
Plant response rating, Cocklebur (cocklebur; [4]): 0
Cocklebur plant response rating (cocklebur; [5]): 0
Cocklebur plant response rating (cocklebur; [12]): 0
Cocklebur plant response rating (cocklebur; [6]): 0
Morningglory plant response rating (morningglory; [1]): 2
Morningglory plant response rating (morningglory; [2]): 2
Plant response rating, Morningglory (morningglory; [3]): 6
Plant response rating, Morningglory (morningglory; [4]): 0
Morningglory plant response rating (morningglory; [5]): 0
Morningglory plant response rating (morningglory; [6]): 0
Redroot pigweed plant response rating (pigweed; [1]): 3
Redroot pigweed plant response rating (pigweed; [2]): 4
Plant response rating, Redroot pigweed (pigweed; [3]): 5
Plant response rating, Redroot pigweed (pigweed; [4]): 8
Redroot pigweed plant response rating (pigweed; [5]): 9
Redroot pigweed plant response rating (pigweed; [6]): 10
B. signalgrass plant response rating (surinam grass; [1]): 0
B. signalgrass plant response rating (surinam grass; [2]): 0
B. signalgrass plant response rating (surinam grass; [11]): 0
Plant response rating, B. signalgrass (surinam grass; [3]): 3
Plant response rating, B. signalgrass (surinam grass; [4]): 2
B. signalgrass plant response rating (surinam grass; [5]): 8
B. signalgrass plant response rating (surinam grass; [12]): 8
B. signalgrass plant response rating (surinam grass; [13]): 9
Corn plant response rating (corn; [1]): 0
Corn plant response rating (corn; [2]): 0
Corn plant response rating (corn; [10]): 0
Plant response rating, Corn (corn; [3]): 0
Plant response rating, Corn (corn; [4]): 0
Corn plant response rating (corn; [5]): 0
Corn plant response rating (corn; [6]): 5
Crabgrass plant response rating (crabgrass; [1]): 4
Crabgrass plant response rating (crabgrass; [2]): 8
Crabgrass plant response rating (crabgrass; [10]): 9
Plant response rating, Crabgrass (crabgrass; [3]): 9
Plant response rating, Crabgrass (crabgrass; [4]): 6
Crabgrass plant response rating (crabgrass; [5]): 7
Crabgrass plant response rating (crabgrass; [6]): 9
Nutsedge plant response rating (purple nutsedge; [1]): 0
Nutsedge plant response rating (purple nutsedge; [2]): 0
Plant response rating, Nutsedge (purple nutsedge; [3]): 0
Plant response rating, Nutsedge (purple nutsedge; [4]): 0
Nutsedge plant response rating (purple nutsedge; [5]): 0
Nutsedge plant response rating (purple nutsedge; [6]): 0
Blackgrass plant response rating (blackgrass; [1]): 0
Blackgrass plant response rating (blackgrass; [2]): 0
Blackgrass plant response rating (blackgrass; [10]): 0
Plant response rating, Blackgrass (blackgrass; [3]): 1
Plant response rating, Blackgrass (blackgrass; [4]): 3
Blackgrass plant response rating (blackgrass; [5]): 5
Blackgrass plant response rating (blackgrass; [12]): 5
Blackgrass plant response rating (blackgrass; [6]): 8
